Results on two compounds are retold here after US20110269811A1, “INHIBITORS OF SEMICARBAZIDE-SENSITIVE AMINE OXIDASE (SSAO) AND VAP-1 MEDIATED ADHESION USEFUL FOR TREATMENT AND PREVENTION OF DISEASES” (priority 2006, published 2011).

Experiment [1] has as its target T1, A3 (h) (Homo sapiens, UniProt P0DMS8).
T1 construct: expressed in transfected cells; host or cells: HEK-293 cells
Put plainly: Receptor binding screen, [^125I]AB-MECA. To be noted: 10 uM Concentration of Compound I-1-Z; read-out: Mean Value, percent inhibition of control specific binding: A3 (h).

Experiment [2] deals with T2, CXCR2 (h) (IL-8B) (Homo sapiens, UniProt P25025).
T2 construct: expressed in transfected cells; host or cells: HEK-293 cells
Briefly: Receptor binding screen, [^125I]IL-8. To be noted: 10 uM Concentration of Compound I-1-Z; read-out: Mean Value, percent inhibition of control specific binding: CXCR2 (h) (IL-8B).

The target of experiment [3] is T3, CB1 (h) (Homo sapiens, UniProt P21554).
T3 construct: expressed in transfected cells; host or cells: CHO cells
Put plainly: Receptor binding screen, [^3H]CP 55940. To be noted: 10 uM Concentration of Compound I-1-Z; read-out: Mean Value, percent inhibition of control specific binding: CB1 (h).

The target in experiment [4] is T4, D4.4 (h) (Homo sapiens, UniProt P21917).
T4 construct: expressed in transfected cells; host or cells: CHO cells
Briefly: Receptor binding screen, [^3H]spiperone. To be noted: 10 uM Concentration of Compound I-1-Z; read-out: Mean Value, percent inhibition of control specific binding: D4.4 (h).

Experiment [5] has as its target T5, ORL1 (h) (NOP) (Homo sapiens, UniProt P41146).
T5 construct: expressed in transfected cells; host or cells: HEK-293 cells
Put plainly: Receptor binding screen, [^3H]nociceptin. To be noted: 10 uM Concentration of Compound I-1-Z; read-out: Mean Value, percent inhibition of control specific binding: ORL1 (h) (NOP). As for the experimental part: (§1) For Table 4 below, the specific ligand binding to the receptors is defined as the difference between the total binding and the nonspecific binding determined in the presence of an excess of unlabelled ligand. The results are expressed as a percent inhibition of control specific binding obtained in the presence of Compound I-1-Z. The IC50 values (concentration causing a half-maximal inhibition of control specific binding) and Hill coefficients (nH) were determined by non-linear regression analysis of the competition curves using Hill equation curve fitting. The inhibition constants (Ki) were calculated from the Cheng Prusoff equation (Ki=IC50/(1+(L/KD)), where L=concentration of radioligand in the assay, and KD=affinity of the radioligand for the receptor). In each experiment, the respective reference compound was tested concurrently with Compound I-1-Z in order to assess the assay suitability.

Experiment [6] concerns the target T6, A2A (h) (Homo sapiens, UniProt P29274).
T6 construct: expressed in transfected cells; host or cells: HEK-293 cells
Briefly: Receptor binding screen, [^3H]CGS 21680. To be noted: 10 uM Concentration of Compound I-1-Z; read-out: Mean Value, percent inhibition of control specific binding: A2A (h).

The target in experiment [7] is T7, ETB (h) (Homo sapiens, UniProt P24530).
T7 construct: expressed in transfected cells; host or cells: CHO cells
Put plainly: Receptor binding screen, [^125I]endothelin-1. The following applies: 10 uM Concentration of Compound I-1-Z; read-out: Mean Value, percent inhibition of control specific binding: ETB (h).

The target of experiment [8] is T8, MC4 (h) (Homo sapiens, UniProt P32245).
T8 construct: expressed in transfected cells; host or cells: CHO cells
Briefly: Receptor binding screen, [^125I]NDP-α-MSH. The following applies: 10 uM Concentration of Compound I-1-Z; read-out: Mean Value, percent inhibition of control specific binding: MC4 (h).

In experiment [9] the test system is P2Y. Put plainly: Receptor binding screen, [^35S]dATPαS. Details: species or system rat. The following applies: 10 uM Concentration of Compound I-1-Z.
The target of experiment [10] is T9, A1 (h) (Homo sapiens, UniProt P30542).
T9 construct: expressed in transfected cells; host or cells: CHO cells
Briefly: Receptor binding screen, [^3H]DPCPX. To be noted: 10 uM Concentration of Compound I-1-Z; read-out: Mean Value, percent inhibition of control specific binding: A1 (h).

For experiment [11], the target named is T10, β1 (h) (Homo sapiens, UniProt P08588).
T10 construct: expressed in transfected cells; host or cells: HEK-293 cells
Put plainly: Receptor binding screen, [^3H](−)CGP 12177. To be noted: 10 uM Concentration of Compound I-1-Z; read-out: Mean Value, percent inhibition of control specific binding: β1 (h).

Experiment [12] concerns K^+V channel. Briefly: Receptor binding screen, [^125I]α-dendrotoxin. The following applies: 10 uM Concentration of Compound I-1-Z. Details: species or system rat.
Experiment [13] addresses T11, M2 (h) (Homo sapiens, UniProt P08172).
T11 construct: expressed in transfected cells; host or cells: CHO cells
Briefly: Receptor binding screen, [^3H]AF-DX 384. To be noted: 10 uM Concentration of Compound I-1-Z; read-out: Mean Value, percent inhibition of control specific binding: M2 (h).

The target in experiment [14] is T12, VIP1 (h) (VPAC1) (Homo sapiens, UniProt P32241).
T12 construct: expressed in transfected cells; host or cells: CHO cells
Briefly: Receptor binding screen, [^125I]VIP. To be noted: 10 uM Concentration of Compound I-1-Z; read-out: Mean Value, percent inhibition of control specific binding: VIP1 (h) (VPAC1).

Experiment [15] concerns the target T13, NE transporter (h) (Homo sapiens, UniProt P23975).
T13 construct: expressed in transfected cells; host or cells: CHO cells
Briefly: Receptor binding screen, [^3H]nisoxetine. To be noted: 10 uM Concentration of Compound I-1-Z; read-out: Mean Value, percent inhibition of control specific binding: NE transporter (h).

Experiment [16] deals with T14, κ (KOP) (Cavia porcellus, UniProt P41144).
T14 construct: cerebellum; from tissue; host or cells: guinea-pig cerebellum
Briefly: Receptor binding screen, [^3H]U 69593, guinea-pig cerebellum. The following applies: 10 uM Concentration of Compound I-1-Z; read-out: Mean Value, percent inhibition of control specific binding: κ (KOP). As for the experimental part: as §1

The test system of experiment [17] is oxazolone-induced colitis. Briefly: Oxazolone-induced colitis. The following applies: 30 mg/kg intraperitoneally, day 0 until day 12; FIG. 2A, 2B. The class given is in vivo, SJL/J male mice. How it is done:
Oxazolone-induced colitis is a TH2-mediated process that closely resembles ulcerative colitis and is responsive to anti-IL4 therapy ((Strober W. et al (2002) Annu. Rev. Immunol. 20: 495, Boirivant M. et al. (1998) J. Ex. Med. 188: 1929). Oxazolone colitis is induced as described (Fuss I. J. et al. (2002) J. Immunol. 168: 900). Briefly, mice are pre-sensitized by epicutaneous application of 1% oxazolone (4-ethoxymethylene-2-phenyl-2oxazolin-5-one, Sigma) in 100% EtOH (200 μL) on day 0, followed by intrarectal administration of 0.75% oxazolone in 50% EtOH (100 μL) to anesthetized SJL/J male mice on day 5 through a 3.5 F catheter inserted 4 cm proximal to the anal verge. Mice are divided in two treatment groups and injected i.p. twice a day with either PBS or a compound of the invention. Injections are initiated at day 0 and are continued through day 12. Disease progression is evaluated by monitoring body weight and survival.
A study was carried out using the protocol described above for oxazolone-induced colitis. […] Disease progression was evaluated until day 15 (10 days after intrarectal administration) by monitoring survival rates and body weight. When following the above-described protocol, disease severity as measured by body weight drop was maximal at day 11 (6 days after intrarectal challenge), although animals started dying on day 9.

T10 sequence (P08588 whole entry): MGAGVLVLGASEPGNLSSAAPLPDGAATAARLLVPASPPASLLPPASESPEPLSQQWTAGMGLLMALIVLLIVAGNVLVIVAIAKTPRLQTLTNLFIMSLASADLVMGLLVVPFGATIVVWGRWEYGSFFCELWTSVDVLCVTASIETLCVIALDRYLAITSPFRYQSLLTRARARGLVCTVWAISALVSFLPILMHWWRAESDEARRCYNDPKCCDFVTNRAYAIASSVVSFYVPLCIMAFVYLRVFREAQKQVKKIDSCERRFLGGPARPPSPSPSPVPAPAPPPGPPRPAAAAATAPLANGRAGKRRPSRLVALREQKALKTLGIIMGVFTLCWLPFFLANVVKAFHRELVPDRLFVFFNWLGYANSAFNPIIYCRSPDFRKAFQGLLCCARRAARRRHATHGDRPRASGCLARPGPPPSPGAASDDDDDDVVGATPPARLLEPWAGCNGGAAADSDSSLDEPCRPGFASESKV
T7 sequence (P24530 27-442): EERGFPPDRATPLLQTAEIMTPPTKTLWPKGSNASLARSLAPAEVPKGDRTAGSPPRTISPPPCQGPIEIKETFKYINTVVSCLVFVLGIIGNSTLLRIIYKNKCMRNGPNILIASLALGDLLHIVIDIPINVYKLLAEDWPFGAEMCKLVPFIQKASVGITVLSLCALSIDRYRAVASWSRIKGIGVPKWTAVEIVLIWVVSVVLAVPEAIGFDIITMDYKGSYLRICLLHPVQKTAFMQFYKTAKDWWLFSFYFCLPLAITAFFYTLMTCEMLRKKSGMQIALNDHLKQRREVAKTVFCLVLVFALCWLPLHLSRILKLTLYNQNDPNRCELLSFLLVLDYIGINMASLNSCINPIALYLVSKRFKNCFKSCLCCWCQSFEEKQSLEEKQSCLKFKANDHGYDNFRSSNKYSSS
T5 sequence (P41146 whole entry): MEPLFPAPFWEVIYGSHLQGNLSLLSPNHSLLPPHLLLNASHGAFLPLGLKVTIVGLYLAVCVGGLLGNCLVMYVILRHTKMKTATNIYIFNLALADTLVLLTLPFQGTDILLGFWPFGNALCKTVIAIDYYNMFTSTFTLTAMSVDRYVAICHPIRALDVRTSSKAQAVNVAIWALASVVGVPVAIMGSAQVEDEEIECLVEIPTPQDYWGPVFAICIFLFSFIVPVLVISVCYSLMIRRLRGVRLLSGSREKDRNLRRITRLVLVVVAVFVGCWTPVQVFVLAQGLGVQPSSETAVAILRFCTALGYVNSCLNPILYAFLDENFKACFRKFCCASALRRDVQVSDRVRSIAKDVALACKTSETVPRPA
T12 sequence (P32241 31-457): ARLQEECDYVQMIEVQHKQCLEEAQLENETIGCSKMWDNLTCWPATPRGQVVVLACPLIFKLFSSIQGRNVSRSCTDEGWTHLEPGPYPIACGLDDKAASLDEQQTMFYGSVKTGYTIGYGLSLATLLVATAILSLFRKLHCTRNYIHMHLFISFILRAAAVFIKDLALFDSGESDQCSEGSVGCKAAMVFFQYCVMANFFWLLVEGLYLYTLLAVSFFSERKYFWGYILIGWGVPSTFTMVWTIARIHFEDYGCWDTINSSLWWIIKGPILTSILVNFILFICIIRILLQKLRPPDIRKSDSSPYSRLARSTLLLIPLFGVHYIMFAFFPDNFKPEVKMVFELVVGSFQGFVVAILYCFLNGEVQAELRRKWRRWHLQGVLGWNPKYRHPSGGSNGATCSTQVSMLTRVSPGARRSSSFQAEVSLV
T14 sequence (P41144 whole entry): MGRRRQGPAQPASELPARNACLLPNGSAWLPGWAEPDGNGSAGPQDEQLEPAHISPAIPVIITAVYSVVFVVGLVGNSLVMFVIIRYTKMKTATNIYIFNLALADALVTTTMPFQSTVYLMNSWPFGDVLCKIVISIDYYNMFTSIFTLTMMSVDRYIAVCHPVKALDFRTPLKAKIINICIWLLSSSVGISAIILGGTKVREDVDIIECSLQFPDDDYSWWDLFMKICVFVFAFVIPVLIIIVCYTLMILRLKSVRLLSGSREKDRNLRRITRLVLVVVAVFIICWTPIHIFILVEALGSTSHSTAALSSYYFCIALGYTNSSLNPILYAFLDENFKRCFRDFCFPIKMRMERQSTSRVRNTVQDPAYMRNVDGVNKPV
T9 sequence (P30542 whole entry): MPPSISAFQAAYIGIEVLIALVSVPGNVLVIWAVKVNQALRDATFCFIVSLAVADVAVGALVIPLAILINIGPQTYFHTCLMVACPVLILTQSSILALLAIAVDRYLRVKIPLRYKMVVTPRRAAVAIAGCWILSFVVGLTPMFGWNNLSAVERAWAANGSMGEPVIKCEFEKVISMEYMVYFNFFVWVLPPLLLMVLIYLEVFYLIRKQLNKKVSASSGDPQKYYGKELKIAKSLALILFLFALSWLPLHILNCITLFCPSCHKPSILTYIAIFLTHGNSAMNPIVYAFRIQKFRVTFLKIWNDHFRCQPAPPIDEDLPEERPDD
T8 sequence (P32245 whole entry): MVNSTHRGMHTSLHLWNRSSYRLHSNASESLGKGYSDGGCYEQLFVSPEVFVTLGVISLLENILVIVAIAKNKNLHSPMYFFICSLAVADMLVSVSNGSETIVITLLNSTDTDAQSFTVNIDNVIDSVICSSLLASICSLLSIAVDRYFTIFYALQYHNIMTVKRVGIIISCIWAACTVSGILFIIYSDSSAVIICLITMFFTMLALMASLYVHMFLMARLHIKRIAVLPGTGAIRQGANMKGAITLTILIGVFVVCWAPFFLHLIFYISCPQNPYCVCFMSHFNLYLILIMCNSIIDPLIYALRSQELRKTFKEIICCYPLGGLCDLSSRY
T2 sequence (P25025 whole entry): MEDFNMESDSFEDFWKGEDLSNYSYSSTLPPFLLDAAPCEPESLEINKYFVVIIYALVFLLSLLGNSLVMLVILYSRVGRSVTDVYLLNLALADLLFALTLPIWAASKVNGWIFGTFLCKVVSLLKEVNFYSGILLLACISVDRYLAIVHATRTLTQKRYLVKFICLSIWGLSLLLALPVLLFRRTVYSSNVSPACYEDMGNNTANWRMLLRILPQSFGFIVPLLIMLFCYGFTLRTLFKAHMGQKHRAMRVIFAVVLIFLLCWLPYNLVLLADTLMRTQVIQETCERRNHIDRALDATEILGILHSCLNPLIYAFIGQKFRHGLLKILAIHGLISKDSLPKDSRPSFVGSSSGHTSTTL
T11 sequence (P08172 whole entry): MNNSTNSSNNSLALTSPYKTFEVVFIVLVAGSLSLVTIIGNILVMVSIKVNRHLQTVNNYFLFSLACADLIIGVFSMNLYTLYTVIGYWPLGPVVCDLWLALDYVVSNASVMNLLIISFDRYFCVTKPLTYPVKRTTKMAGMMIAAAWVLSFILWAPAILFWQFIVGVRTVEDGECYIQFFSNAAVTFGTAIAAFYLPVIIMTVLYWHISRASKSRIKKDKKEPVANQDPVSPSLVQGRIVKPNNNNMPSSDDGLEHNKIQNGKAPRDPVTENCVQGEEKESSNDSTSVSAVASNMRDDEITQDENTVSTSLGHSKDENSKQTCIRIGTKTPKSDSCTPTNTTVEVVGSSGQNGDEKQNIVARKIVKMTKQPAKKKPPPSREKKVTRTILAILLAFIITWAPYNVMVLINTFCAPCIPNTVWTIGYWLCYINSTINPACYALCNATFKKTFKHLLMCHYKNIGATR
T6 sequence (P29274 whole entry): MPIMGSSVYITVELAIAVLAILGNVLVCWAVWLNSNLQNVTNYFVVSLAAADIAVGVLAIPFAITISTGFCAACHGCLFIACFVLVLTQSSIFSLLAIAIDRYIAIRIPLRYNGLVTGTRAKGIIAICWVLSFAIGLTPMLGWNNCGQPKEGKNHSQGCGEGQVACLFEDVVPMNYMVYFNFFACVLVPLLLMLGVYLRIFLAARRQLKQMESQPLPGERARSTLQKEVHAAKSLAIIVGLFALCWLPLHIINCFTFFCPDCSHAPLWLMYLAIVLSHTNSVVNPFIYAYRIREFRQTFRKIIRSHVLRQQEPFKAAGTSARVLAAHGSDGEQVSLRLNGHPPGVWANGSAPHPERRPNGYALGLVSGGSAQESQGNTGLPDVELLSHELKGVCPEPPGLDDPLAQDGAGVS
T1 sequence (P0DMS8 whole entry): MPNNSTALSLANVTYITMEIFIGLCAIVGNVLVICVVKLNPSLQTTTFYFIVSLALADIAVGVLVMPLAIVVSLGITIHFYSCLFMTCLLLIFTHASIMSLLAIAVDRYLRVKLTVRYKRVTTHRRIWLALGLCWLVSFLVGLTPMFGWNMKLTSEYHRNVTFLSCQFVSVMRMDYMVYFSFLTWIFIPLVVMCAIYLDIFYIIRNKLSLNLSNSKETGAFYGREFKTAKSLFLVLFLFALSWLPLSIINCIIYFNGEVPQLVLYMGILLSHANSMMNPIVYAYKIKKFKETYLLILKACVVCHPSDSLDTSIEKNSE
T4 sequence (P21917 whole entry): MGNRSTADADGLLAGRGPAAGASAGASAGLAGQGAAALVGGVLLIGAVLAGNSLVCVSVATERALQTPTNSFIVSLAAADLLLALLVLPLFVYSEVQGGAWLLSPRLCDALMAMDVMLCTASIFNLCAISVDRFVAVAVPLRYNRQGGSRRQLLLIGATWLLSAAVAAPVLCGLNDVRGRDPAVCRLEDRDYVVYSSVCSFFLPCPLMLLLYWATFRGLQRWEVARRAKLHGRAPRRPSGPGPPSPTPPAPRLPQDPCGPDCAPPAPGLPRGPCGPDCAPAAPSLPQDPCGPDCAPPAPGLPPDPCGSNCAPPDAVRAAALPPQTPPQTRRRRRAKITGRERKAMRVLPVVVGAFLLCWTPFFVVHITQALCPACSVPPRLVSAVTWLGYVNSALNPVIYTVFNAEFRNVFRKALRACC

For orientation: inhibition means the change of the read-out against control, counted positive when it falls. Take `COc1ccc(C/C(=C/F)CN)cc1.Cl` [Compound I-1-Z, (Z)-3-Fluoro-2-(4-methoxybenzyl)-allylamine hydrochloride]: the inhibition at 10 µM is 1% in experiment [1]; -8% in [2]; 14% in [3]; 2% in experiment [4]; -9% in experiment [5]; 13% in experiment [6]. The inhibition at 10 µM is -5% in experiment [7]; 8% in [8]; -3% in [10]; 5% in [11]; 3% in experiment [13]; -13% in [14]. Further, the inhibition at 10 µM in [15] is 68%; in experiment [16], -18%. Further, in [9], the “Mean Value, percent inhibition of control specific binding: P2Y” value is recorded as −1%. The “Mean Value, percent inhibition of control specific binding: K^+V channel” value in experiment [12] is −5%.

Regarding `NC/C(F)=C\Cc1cc(F)cc(C(F)(F)F)c1` [II-1-E, (E)-2-Fluoro-4-(3-fluoro-5-trifluoromethylphenyl)-but-2-enylamine], in experiment [17], the “survival rates and body weight loss compared with the vehicle group” value was “improved survival rates and body weight loss”.
